According to US8153689B2, “Pleuromutilin derivatives for the treatment of diseases mediated by microbes” (Nabriva Therapeutics AG, priority 2007, dated 2012):

Test system: primary human hepatocytes
Test: Metabolic stability in cryopreserved primary human hepatocytes
Assay type: in vitro ADME
Conditions: 4 h incubation with human hepatocytes, compound concentration 5 μg/mL, 37° C., LC/MS
Experimental: The metabolic stability for compounds of the present invention was determined by using cryopreserved primary human hepatocytes. 1×10^6 cells/mL were incubated in the absence and the presence of 5 and 25 μg/mL of the test compounds at 37° C., 5% CO2 for 4 hours. To evaluate the in vitro degradation under assay conditions, a sample of each test compound was incubated also in the absence of hepatocytes. The incubation was stopped by freezing the reaction mixture. After ultrafiltration and washing of the filter with acetonitrile, the sample solution was analyzed for parent compound disappearance or metabolite appearance using LC/MS (ion trap). The metabolic stability value corresponds to the detected parent compound in % after incubation.

Row | Compound | metabolic stability value: detected parent compound in % after incubation [%]
1 | 14-O-{[(1R, 3R)-3-Amino-cyclohexylsulfanyl]-acetyl}-mutilin hydrochloride and the (1S, 3S)diastereomer hydrochloride thereof | 24
2 | C=CC1(C)CC(OC(=O)CSC2CC(N)CCC2O)C2(C)C(C)CCC3(CCC(=O)C32)C(C)C1O.Cl (mixture of isomers) [Example 2, 14-O-{[(1R, 2R, 5S)-5-Amino-2-hydroxy-cyclohexylsulfanyl]-acetyl}-mutilin hydrochloride+(1S, 2S, 5R)diastereomer hydrochloride] | 66
